#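 Following 48 hours of exposure in 96-well plates, responses at five concentrations were used to interpolate endpoints linearly. TGI is the concentration that stops growth completely.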
# Assays:
# Assay in all cases: inhibition of tumour cell growth, NCI panel, 48 h
# HT29 colon = tested on: HT29 colon
# T-47D breast = tested on: T-47D breast
# HCT-15 colon = tested on: HCT-15 colon
# SF-539 CNS = tested on: SF-539 CNS
# EKVX NSCLC = tested on: EKVX NSCLC
# UO-31 renal = tested on: UO-31 renal
# SNB-75 CNS = tested on: SNB-75 CNS
# HL-60(TB) leukemia = tested on: HL-60(TB) leukemia
# MDA-N = tested on: MDA-N
# BT-549 breast = tested on: BT-549 breast
# SK-MEL-5 melanoma = tested on: SK-MEL-5 melanoma
# A498 renal = tested on: A498 renal
# PC-3 prostate = tested on: PC-3 prostate
# COLO 205 colon = tested on: COLO 205 colon
# KM12 colon = tested on: KM12 colon
# OVCAR-4 ovarian = tested on: OVCAR-4 ovarian
# RXF 393 renal = tested on: RXF 393 renal
# HS 578T breast = tested on: HS 578T breast
# NCI/ADR-RES ovarian = tested on: NCI/ADR-RES ovarian
# LOX IMVI melanoma = tested on: LOX IMVI melanoma
# SF-295 CNS = tested on: SF-295 CNS
# HOP-62 NSCLC = tested on: HOP-62 NSCLC
# A549 NSCLC = tested on: A549 NSCLC
# SNB-19 CNS = tested on: SNB-19 CNS
# NCI-H460 lung = tested on: NCI-H460 lung
# NCI-H23 lung = tested on: NCI-H23 lung
# IGROV1 ovarian = tested on: IGROV1 ovarian
# OVCAR-5 ovarian = tested on: OVCAR-5 ovarian
# SW-620 colon = tested on: SW-620 colon
# MDA-MB-435 = tested on: MDA-MB-435
# SF-268 CNS = tested on: SF-268 CNS
# SN12C renal = tested on: SN12C renal
# MOLT-4 leukemia = tested on: MOLT-4 leukemia
# UACC-257 melanoma = tested on: UACC-257 melanoma
# NCI-H226 lung = tested on: NCI-H226 lung
# UACC-62 melanoma = tested on: UACC-62 melanoma
# SK-MEL-2 melanoma = tested on: SK-MEL-2 melanoma
# MCF7 breast = tested on: MCF7 breast
# OVCAR-3 ovarian = tested on: OVCAR-3 ovarian
# DU-145 prostate = tested on: DU-145 prostate
# SK-MEL-28 melanoma = tested on: SK-MEL-28 melanoma
# U251 CNS = tested on: U251 CNS
# TK-10 renal = tested on: TK-10 renal
# SK-OV-3 ovarian = tested on: SK-OV-3 ovarian
# ACHN renal = tested on: ACHN renal
# RPMI-8226 leukemia = tested on: RPMI-8226 leukemia
# M14 melanoma = tested on: M14 melanoma
# 786-0 renal = tested on: 786-0 renal
# HCT-116 colon = tested on: HCT-116 colon
# HCC-2998 colon = tested on: HCC-2998 colon
# NCI-H522 lung = tested on: NCI-H522 lung
# HOP-92 NSCLC = tested on: HOP-92 NSCLC
# CCRF-CEM leukemia = tested on: CCRF-CEM leukemia
# K-562 leukemia = tested on: K-562 leukemia
# CAKI-1 renal = tested on: CAKI-1 renal
# MDA-MB-231 breast = tested on: MDA-MB-231 breast
# SR leukemia = tested on: SR leukemia
# MALME-3M melanoma = tested on: MALME-3M melanoma
# OVCAR-8 ovarian = tested on: OVCAR-8 ovarian
# KM20L2 colon = tested on: KM20L2 colon
# SNB-78 CNS = tested on: SNB-78 CNS
# LXFL 529 NSCLC = tested on: LXFL 529 NSCLC
# DMS 273 small cell lung = tested on: DMS 273 small cell lung
# DLD-1 colon = tested on: DLD-1 colon
# M19-MEL melanoma = tested on: M19-MEL melanoma
# DMS 114 small cell lung = tested on: DMS 114 small cell lung
# HOP-18 NSCLC = tested on: HOP-18 NSCLC
# XF 498 CNS = tested on: XF 498 CNS
smiles,measurement,setting,value
CCOC1SC(SC)=NN1C(=O)C(OC(C)=O)C(OC(C)=O)C(OC(C)=O)C(OC(C)=O)C(=O)N1N=C(SC)SC1OCC (configuration not stated),TGI,HT29 colon,> 100 µM
same,TGI,T-47D breast,> 100 µM
same,TGI,HCT-15 colon,> 100 µM
same,TGI,SF-539 CNS,> 100 µM
same,TGI,EKVX NSCLC,> 100 µM
same,TGI,UO-31 renal,> 100 µM
same,TGI,SNB-75 CNS,> 100 µM
same,TGI,HL-60(TB) leukemia,> 100 µM
same,TGI,MDA-N,> 100 µM
same,TGI,BT-549 breast,> 100 µM
same,TGI,SK-MEL-5 melanoma,> 100 µM
same,TGI,A498 renal,> 100 µM
same,TGI,PC-3 prostate,> 100 µM
same,TGI,COLO 205 colon,> 100 µM
same,TGI,KM12 colon,> 100 µM
same,TGI,OVCAR-4 ovarian,> 100 µM
same,TGI,RXF 393 renal,> 100 µM
same,TGI,HS 578T breast,96.2 µM
same,TGI,NCI/ADR-RES ovarian,> 100 µM
same,TGI,LOX IMVI melanoma,> 100 µM
same,TGI,SF-295 CNS,> 100 µM
same,TGI,HOP-62 NSCLC,> 100 µM
same,TGI,A549 NSCLC,> 100 µM
same,TGI,SNB-19 CNS,> 100 µM
same,TGI,NCI-H460 lung,> 100 µM
same,TGI,NCI-H23 lung,> 100 µM
same,TGI,IGROV1 ovarian,> 100 µM
same,TGI,OVCAR-5 ovarian,> 100 µM
same,TGI,SW-620 colon,> 100 µM
same,TGI,MDA-MB-435,> 100 µM
same,TGI,SF-268 CNS,> 100 µM
same,TGI,SN12C renal,> 100 µM
same,TGI,MOLT-4 leukemia,> 100 µM
same,TGI,UACC-257 melanoma,> 100 µM
same,TGI,NCI-H226 lung,> 100 µM
same,TGI,UACC-62 melanoma,> 100 µM
same,TGI,SK-MEL-2 melanoma,> 100 µM
same,TGI,MCF7 breast,> 100 µM
same,TGI,OVCAR-3 ovarian,> 100 µM
same,TGI,DU-145 prostate,> 100 µM
same,TGI,SK-MEL-28 melanoma,> 100 µM
same,TGI,U251 CNS,> 100 µM
same,TGI,TK-10 renal,> 100 µM
same,TGI,SK-OV-3 ovarian,> 100 µM
same,TGI,ACHN renal,> 100 µM
same,TGI,RPMI-8226 leukemia,> 100 µM
same,TGI,M14 melanoma,> 100 µM
same,TGI,786-0 renal,> 100 µM
same,TGI,HCT-116 colon,> 100 µM
same,TGI,HCC-2998 colon,> 100 µM
same,TGI,NCI-H522 lung,> 100 µM
same,TGI,HOP-92 NSCLC,> 100 µM
same,TGI,CCRF-CEM leukemia,> 100 µM
same,TGI,K-562 leukemia,> 100 µM
same,TGI,CAKI-1 renal,> 100 µM
same,TGI,MDA-MB-231 breast,> 100 µM
same,TGI,SR leukemia,> 100 µM
same,TGI,MALME-3M melanoma,> 100 µM
same,TGI,OVCAR-8 ovarian,> 100 µM
Cc1ccc(C(=O)NC(C)(C)C)cc1N=NN(C)C,TGI,HT29 colon,> 100 µM
same,TGI,HCT-15 colon,> 100 µM
same,TGI,SF-539 CNS,> 100 µM
same,TGI,EKVX NSCLC,> 100 µM
same,TGI,UO-31 renal,> 100 µM
same,TGI,KM20L2 colon,> 100 µM
same,TGI,SK-MEL-5 melanoma,> 100 µM
same,TGI,KM12 colon,> 100 µM
same,TGI,OVCAR-4 ovarian,> 100 µM
same,TGI,SNB-78 CNS,> 100 µM
same,TGI,LOX IMVI melanoma,> 100 µM
same,TGI,SF-295 CNS,> 100 µM
same,TGI,HOP-62 NSCLC,> 100 µM
same,TGI,A549 NSCLC,> 100 µM
same,TGI,SNB-19 CNS,> 100 µM
same,TGI,NCI-H460 lung,> 100 µM
same,TGI,NCI-H23 lung,> 100 µM
same,TGI,IGROV1 ovarian,> 100 µM
same,TGI,SW-620 colon,> 100 µM
same,TGI,SF-268 CNS,> 100 µM
same,TGI,SN12C renal,> 100 µM
same,TGI,UACC-257 melanoma,> 100 µM
same,TGI,UACC-62 melanoma,> 100 µM
same,TGI,SK-MEL-2 melanoma,> 100 µM
same,TGI,OVCAR-3 ovarian,> 100 µM
same,TGI,SK-MEL-28 melanoma,> 100 µM
same,TGI,U251 CNS,> 100 µM
same,TGI,TK-10 renal,> 100 µM
same,TGI,ACHN renal,> 100 µM
same,TGI,LXFL 529 NSCLC,> 100 µM
same,TGI,DMS 273 small cell lung,> 100 µM
same,TGI,M14 melanoma,> 100 µM
same,TGI,786-0 renal,> 100 µM
same,TGI,DLD-1 colon,> 100 µM
same,TGI,HCT-116 colon,> 100 µM
same,TGI,HCC-2998 colon,> 100 µM
same,TGI,NCI-H522 lung,> 100 µM
same,TGI,HOP-92 NSCLC,> 100 µM
same,TGI,CAKI-1 renal,> 100 µM
same,TGI,OVCAR-8 ovarian,> 100 µM
CC(O[Si](C)(C)C)C1C=CC(C)n2c(=O)n(-c3ccccc3)c(=O)n21 (configuration not stated),TGI,HT29 colon,> 100 µM
same,TGI,HCT-15 colon,> 100 µM
same,TGI,SF-539 CNS,> 100 µM
same,TGI,EKVX NSCLC,> 100 µM
same,TGI,UO-31 renal,> 100 µM
same,TGI,HL-60(TB) leukemia,> 100 µM
same,TGI,SK-MEL-5 melanoma,> 100 µM
same,TGI,M19-MEL melanoma,> 100 µM
same,TGI,COLO 205 colon,> 100 µM
same,TGI,KM12 colon,> 100 µM
same,TGI,OVCAR-4 ovarian,> 100 µM
same,TGI,SNB-78 CNS,> 100 µM
same,TGI,RXF 393 renal,> 100 µM
same,TGI,SF-295 CNS,> 100 µM
same,TGI,HOP-62 NSCLC,> 100 µM
same,TGI,A549 NSCLC,> 100 µM
same,TGI,SNB-19 CNS,> 100 µM
same,TGI,NCI-H23 lung,> 100 µM
same,TGI,IGROV1 ovarian,> 100 µM
same,TGI,OVCAR-5 ovarian,> 100 µM
same,TGI,MOLT-4 leukemia,> 100 µM
same,TGI,UACC-62 melanoma,> 100 µM
same,TGI,SK-MEL-2 melanoma,> 100 µM
same,TGI,OVCAR-3 ovarian,> 100 µM
same,TGI,SK-MEL-28 melanoma,> 100 µM
same,TGI,U251 CNS,> 100 µM
same,TGI,TK-10 renal,> 100 µM
same,TGI,DMS 114 small cell lung,> 100 µM
same,TGI,SK-OV-3 ovarian,> 100 µM
same,TGI,RPMI-8226 leukemia,> 100 µM
same,TGI,M14 melanoma,> 100 µM
same,TGI,786-0 renal,> 100 µM
same,TGI,DLD-1 colon,> 100 µM
same,TGI,HCT-116 colon,> 100 µM
same,TGI,HCC-2998 colon,> 100 µM
same,TGI,HOP-18 NSCLC,> 100 µM
same,TGI,K-562 leukemia,> 100 µM
same,TGI,CAKI-1 renal,> 100 µM
same,TGI,SR leukemia,> 100 µM
same,TGI,MALME-3M melanoma,> 100 µM
same,TGI,OVCAR-8 ovarian,> 100 µM
C/C(=N/N)c1ccc2[nH]c3c(C)cc([N+](=O)[O-])c(C)c3c2c1,TGI,HT29 colon,90.1 µM
same,TGI,HCT-15 colon,24.7 µM
same,TGI,SF-539 CNS,29.3 µM
same,TGI,EKVX NSCLC,66.1 µM
same,TGI,UO-31 renal,22.4 µM
same,TGI,SNB-75 CNS,> 100 µM
same,TGI,HL-60(TB) leukemia,> 100 µM
same,TGI,SK-MEL-5 melanoma,18.1 µM
same,TGI,M19-MEL melanoma,27.1 µM
same,TGI,COLO 205 colon,25.5 µM
same,TGI,OVCAR-4 ovarian,38.3 µM
same,TGI,LOX IMVI melanoma,19.5 µM
same,TGI,SF-295 CNS,35.5 µM
same,TGI,HOP-62 NSCLC,20.9 µM
same,TGI,A549 NSCLC,40.6 µM
same,TGI,SNB-19 CNS,31.8 µM
same,TGI,NCI-H460 lung,72.4 µM
same,TGI,SW-620 colon,24.7 µM
same,TGI,SF-268 CNS,60.4 µM
same,TGI,SN12C renal,15.8 µM
same,TGI,MOLT-4 leukemia,19.8 µM
same,TGI,UACC-257 melanoma,48.6 µM
same,TGI,NCI-H226 lung,29.2 µM
same,TGI,SK-MEL-2 melanoma,26.3 µM
same,TGI,OVCAR-3 ovarian,30.7 µM
same,TGI,SK-MEL-28 melanoma,24.5 µM
same,TGI,TK-10 renal,28.4 µM
same,TGI,DMS 114 small cell lung,25.8 µM
same,TGI,ACHN renal,21.6 µM
same,TGI,DMS 273 small cell lung,17.4 µM
same,TGI,RPMI-8226 leukemia,64 µM
same,TGI,M14 melanoma,30.4 µM
same,TGI,786-0 renal,22.2 µM
same,TGI,HCT-116 colon,17.8 µM
same,TGI,HCC-2998 colon,31.6 µM
same,TGI,HOP-18 NSCLC,24 µM
same,TGI,NCI-H522 lung,36.7 µM
same,TGI,CCRF-CEM leukemia,30.1 µM
same,TGI,K-562 leukemia,40.7 µM
same,TGI,MALME-3M melanoma,16.4 µM
same,TGI,XF 498 CNS,24.7 µM
same,TGI,OVCAR-8 ovarian,26.5 µM
